Results: PubChem BioAssay (NCI)
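A five-concentration, 48-hour dose response in 96-well plates underlies each endpoint, interpolated linearly between surrounding concentrations. Abbreviation: GI50, concentration required for 50% inhibition of growth. TGI is the concentration that stops growth completely.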

How the values were obtained:
Experiment in all cases: DTP human tumour cell line panel, 48 h
[1] = system: TK-10 renal
[2] = system: SF-295 CNS
[3] = system: KM12 colon
[4] = system: NCI-H460 lung
[5] = system: UACC-62 melanoma
[6] = system: DU-145 prostate
[7] = system: SNB-19 CNS
[8] = system: RXF 393 renal
[9] = system: M14 melanoma
[10] = system: A549 NSCLC
[11] = system: HOP-92 NSCLC
[12] = system: COLO 205 colon
[13] = system: MDA-MB-435
[14] = system: PC-3 prostate
[15] = system: 786-0 renal
[16] = system: HCC-2998 colon
[17] = system: U251 CNS
[18] = system: UACC-257 melanoma
[19] = system: A498 renal
[20] = system: LOX IMVI melanoma
[21] = system: SW-620 colon
[22] = system: SN12C renal
[23] = system: CCRF-CEM leukemia
[24] = system: HCT-116 colon
[25] = system: NCI-H522 lung
[26] = system: ACHN renal
[27] = system: T-47D breast
[28] = system: BT-549 breast
[29] = system: HL-60(TB) leukemia
[30] = system: MOLT-4 leukemia
[31] = system: IGROV1 ovarian
[32] = system: OVCAR-3 ovarian
[33] = system: OVCAR-5 ovarian
[34] = system: SK-MEL-28 melanoma
[35] = system: SF-539 CNS
[36] = system: SK-OV-3 ovarian
[37] = system: NCI-H23 lung
[38] = system: HT29 colon
[39] = system: SNB-75 CNS
[40] = system: HS 578T breast
[41] = system: K-562 leukemia
[42] = system: NCI-H226 lung
[43] = system: SK-MEL-2 melanoma
[44] = system: SF-268 CNS
[45] = system: HOP-62 NSCLC
[46] = system: OVCAR-8 ovarian
[47] = system: RPMI-8226 leukemia
[48] = system: MCF7 breast
[49] = system: SK-MEL-5 melanoma
[50] = system: HCT-15 colon
[51] = system: CAKI-1 renal
[52] = system: MALME-3M melanoma
[53] = system: SR leukemia
[54] = system: UO-31 renal
[55] = system: MDA-MB-231 breast
[56] = system: OVCAR-4 ovarian
[57] = system: EKVX NSCLC
[58] = system: NCI/ADR-RES ovarian

With `NC(=S)N/N=C/c1cc(-c2cccc(N)c2)ccn1` the GI50 [1] was 1200 nM, the TGI [1] was 44 µM and the GI50 [2] was 1660 nM. The TGI [2] was 31 µM, the GI50 [3] was 1110 nM and the TGI [3] was over 41.2 µM. For the same compound, the GI50 [4] was 1070 nM, the TGI [4] was 7.27 µM and the GI50 [5] was 1380 nM. It also gave a TGI [5] of over 24.5 µM, a GI50 [6] of 1250 nM and a TGI [6] of 12 µM. It also gave a GI50 [7] of 4.24 µM, a TGI [7] of over 100 µM and a GI50 [8] of 2320 nM. For the same compound, the TGI [8] was 42.4 µM, the GI50 [9] was 1490 nM and the TGI [9] was 4.21 µM. For the same compound, the GI50 [10] was 3.11 µM, the TGI [10] was over 51.3 µM and the GI50 [11] was 314 nM. For the same compound, the TGI [11] was 40 µM, the GI50 [12] was 3.41 µM and the TGI [12] was over 100 µM. For the same compound, the GI50 [13] was 3.2 µM, the TGI [13] was over 100 µM and the GI50 [14] was 1070 nM. It also gave a TGI [14] of over 100 µM, a GI50 [15] of 1290 nM and a TGI [15] of 6.34 µM. For the same compound, the GI50 [16] was 2200 nM, the TGI [16] was over 43.5 µM and the GI50 [17] was 783 nM. It also gave a TGI [17] of over 38.8 µM, a GI50 [18] of 2150 nM and a TGI [18] of over 28.6 µM. It also gave a GI50 [19] of 1610 nM, a TGI [19] of 19.1 µM and a GI50 [20] of 2090 nM. The TGI [20] was 34.6 µM, the GI50 [21] was 3.45 µM and the TGI [21] was over 81.8 µM. For the same compound, the GI50 [22] was 2520 nM, the TGI [22] was over 100 µM and the GI50 [23] was 674 nM. The TGI [23] was over 36.1 µM, the GI50 [24] was 1990 nM and the TGI [24] was 27.3 µM. The GI50 [25] was 202 nM, the TGI [25] was 564 nM and the GI50 [26] was 1060 nM. The TGI [26] was 16.1 µM, the GI50 [27] was 1340 nM and the TGI [27] was over 100 µM. For the same compound, the GI50 [28] was 3.52 µM, the TGI [28] was over 100 µM and the GI50 [29] was 281 nM. It also gave a GI50 [30] of 588 nM, a TGI [30] of over 100 µM and a GI50 [31] of 3.05 µM. It also gave a TGI [31] of over 24.5 µM, a GI50 [32] of 1670 nM and a TGI [32] of 23.2 µM. It also gave a GI50 [33] of 3.96 µM, a TGI [33] of over 100 µM and a GI50 [34] of 4.35 µM. It also gave a TGI [34] of over 100 µM, a GI50 [35] of 675 nM and a TGI [35] of 6.17 µM. The GI50 [36] was 3.29 µM, the TGI [36] was over 93.8 µM and the GI50 [37] was 1910 nM. The TGI [37] was over 100 µM, the GI50 [38] was 3.72 µM and the TGI [38] was over 100 µM. For the same compound, the GI50 [39] was 2150 nM, the TGI [39] was over 100 µM and the GI50 [40] was 585 nM. It also gave a TGI [40] of over 57.4 µM, a GI50 [41] of 541 nM and a TGI [41] of over 100 µM. It also gave a GI50 [42] of 1730 nM, a TGI [42] of 8.18 µM and a GI50 [43] of 3.6 µM. For the same compound, the TGI [43] was 43.8 µM, the GI50 [44] was 1020 nM and the TGI [44] was over 70.7 µM. It also gave a GI50 [45] of 2440 nM, a TGI [45] of over 36.9 µM and a GI50 [46] of 1660 nM. The TGI [46] was over 67.9 µM, the GI50 [47] was 446 nM and the TGI [47] was 28.7 µM. For the same compound, the GI50 [48] was 2000 nM, the TGI [48] was over 44.8 µM and the GI50 [49] was 1690 nM. The TGI [49] was 7.26 µM, the GI50 [50] was 2710 nM and the TGI [50] was over 100 µM. For the same compound, the GI50 [51] was 972 nM, the TGI [51] was 10.3 µM and the GI50 [52] was 1310 nM. The TGI [52] was 24 µM, the GI50 [53] was 346 nM and the TGI [53] was over 27.9 µM. The GI50 [54] was 907 nM, the TGI [54] was 8.69 µM and the GI50 [55] was 3.6 µM. The TGI [55] was over 100 µM, the GI50 [56] was 2660 nM and the TGI [56] was over 100 µM. For the same compound, the GI50 [57] was 2600 nM, the TGI [57] was over 100 µM and the GI50 [58] was 2680 nM. For the same compound, the TGI [58] was over 100 µM.
